Measurements from article PMC4493835 (Frontiers in Microbiology, 2015).
Like-named read-outs stand apart in the source and are kept apart here.

Tests used:
Rhizoctonia solani = conditions: cited from earlier work
Pseudomonas syringae = type: cell-based; conditions: inferred from wild type vs thanamycin mutants; data not shown
Method: (§1) For in vitro growth inhibition of fungi and oomycetes, SH-C52 and its derivative strains were, using an overnight culture in KB, spot-inoculated (3 μl) at the periphery of 1/5th strength PDA (pH 7.0) plates. After incubation for 2 days at 25°C, an agar plug (4-mm-diameter) from a freshly grown plate with the target organism was transferred to the center of the 1/5th PDA plate. Inhibition of radial growth of the fungus or the oomycete was monitored from 2 days after incubation up to 2 weeks after incubation, depending on the growth speed of the target organism. For in vitro bacteria and yeast inhibition assays, bacteria and yeast cells were included, after autoclaving and cooling to 45°C, into the 1/5th PDA medium at a concentration of ~10^5 cfu/ml. After solidifying and sufficient drying of the plates, SH-C52 and its derivative strains were, using an overnight culture in KB, spot-inoculated (3 μl) at the periphery of the bacteria or yeast containing plates.

[1] = system: Pectobacterium atrosepticum; type: cell-based; conditions: inferred from wild type vs thanamycin mutants; data not shown
Method: as §1

B. megaterium [2] = conditions: cited from earlier work
phospholipase D = type: cell-based, Phytophthora infestans
B. megaterium [3] = conditions: cited from earlier work; remark: listed apart in the source
Rhodotorula pilimanae = conditions: cited from earlier work
fungi = type: cell-based
[4] = system: Arthrobacter crystallopoietes; conditions: cited from earlier work
Phytophthora capsici = type: cell-based; conditions: 50 μM brabantamide A
Staphylococcus aureus = conditions: ref Reder-Christ et al., 2012; Schmidt et al., 2014; cited from earlier work
Source text: Recently, we discovered Pseudomonas sp. SH-C52, a strain representative of a larger population of Pseudomonads that contributes to the natural suppressiveness of a soil against the fungal plant pathogen Rhizoctonia solani (Mendes et al., [2011]). The gene cluster responsible for the activity of strain SH-C52 against R. solani is encoded by an NRPS, predicted to synthesize a 9-amino-acid chlorinated LP, designated thanamycin (Mendes et al., [2011]). The production and partial structure of thanamycin was resolved by live colony mass spectrometry (Watrous et al., [2012]). Next to thanamycin, stra ...

Pythium ultimum = type: cell-based; conditions: 50 μM brabantamide A
Phytophthora infestans = type: cell-based

Substance: thanamycin
- antifungal activity against Rhizoctonia solani (Rhizoctonia solani): antifungal activity
- activity against Pseudomonas syringae (Pseudomonas syringae): little activity
- activity against Pectobacterium atrosepticum [1]: little activity

Substance: corpeptin
- activity against B. megaterium (B. megaterium [2]): activity was observed

Substance: syringopeptin
- activity against B. megaterium (B. megaterium [2]): activity was observed

Substance: brabantamide
- variation in the phospholipid levels (phospholipase D): no significant variation

Substance: cormycin
- activity against B. megaterium (B. megaterium [3]): active
- activity against the yeast Rhodotorula pilimanae (Rhodotorula pilimanae): active

Substance: brabantamide A
- antifungal activity (fungi): No antifungal activity
- activity against Arthrobacter crystallopoietes [4]: displays activity
- activity against Phytophthora capsici (Phytophthora capsici): has activity
- inhibition of phospholipase A2 (phospholipase A2): no indication was found
- activity against Staphylococcus aureus (Staphylococcus aureus): displays activity
- concentration at which the increase in PtdBut levels already occurred (phospholipase D): ≤ 1 µM
- other phospholipid levels (phospholipase D): not affected
- phosphatidylbutanol (PtdBut) levels (indicates stimulation of phospholipase D) (phospholipase D; n = 2): increase
- activity against Pythium ultimum (Pythium ultimum): has activity
- concentration above which mycelial growth is inhibited (less dense mycelial mat) (Phytophthora infestans): above 5 μM
- activity against P. infestans (Phytophthora infestans; 1% DMSO, 18°C): has activity
